Test results: patent US11220494B2, “Cyclin dependent kinase inhibitors” (Pfizer Inc., priority 2018, dated 2022)

target: CDK4 (Homo sapiens (Human), UniProt P11802); experiment: Phospho-Serine 795 Rb ELISA assay in JEKO-1 cells; assay type: cell-based; conditions: treated overnight, phospho-Ser795 Rb, read-out: CDK4 pRB S795 ELISA JEKO-1 cells IC50
Description: Phospho-Serine 795 Rb ELISA Assays
(§1) JEKO-1 or MV4-11 cells were seeded at 15,000 or 20,000 cells per well, respectively, in 100 μL growth media and allowed to incubate at 37° C. with 5% CO2 overnight. The following day, compounds were serially diluted from a 10 mM top dose for an 11-point 3-fold dilution curve in DMSO. Compounds were intermediately diluted 1:200 into growth media prior to diluting 1:5 on cells for final concentration 10 μM to 0.1 nM in 0.1% DMSO on cells. JEKO-1 and MV4-11 cells were treated were treated overnight, at 37° C. with 5% CO2. Cells were lysed in 100 μL/well CST lysis buffer on ice and transferred to pre-coated and blocked anti-phospho-Ser795 Rb ELISA plates for overnight incubation at 4° C. Plates were washed to remove residual, unbound cellular proteins and total Rb detection antibody added for 90 minutes at 37° C. Following wash to remove unbound total Rb antibody, the HRP tagged antibody was allowed to bind for 30 minutes at 37° C. Following wash to remove unbound HRP antibody, Glo Substrate Reagent was added and incubated protected from light for 5 to 10 minutes. Plates were read in luminescence mode and IC50 values calculated.

Chain of CDK4 (P11802 2-303): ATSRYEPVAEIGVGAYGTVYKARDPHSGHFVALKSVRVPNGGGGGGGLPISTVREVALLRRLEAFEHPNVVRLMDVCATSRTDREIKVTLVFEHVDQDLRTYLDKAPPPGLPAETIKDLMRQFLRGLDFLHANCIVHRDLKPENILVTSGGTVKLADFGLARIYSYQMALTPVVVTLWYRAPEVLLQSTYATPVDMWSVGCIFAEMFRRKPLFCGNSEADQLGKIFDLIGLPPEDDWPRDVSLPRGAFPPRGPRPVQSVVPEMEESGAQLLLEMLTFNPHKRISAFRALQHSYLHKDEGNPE
Chain of CDK4 (P24385 whole entry partner): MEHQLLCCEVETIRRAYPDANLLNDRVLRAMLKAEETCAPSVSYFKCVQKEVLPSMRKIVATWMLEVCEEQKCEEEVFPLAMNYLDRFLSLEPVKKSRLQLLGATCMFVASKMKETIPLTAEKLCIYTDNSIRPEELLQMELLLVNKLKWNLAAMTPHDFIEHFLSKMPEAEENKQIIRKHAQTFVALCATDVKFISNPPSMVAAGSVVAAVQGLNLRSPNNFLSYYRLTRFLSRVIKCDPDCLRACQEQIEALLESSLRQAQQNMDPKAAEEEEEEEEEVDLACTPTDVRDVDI

Row | SMILES | IC50 [nM]
1 | CC(C)n1cnc2c(Cl)cc(-c3nc(N[C@@H]4CCN(S(C)(=O)=O)C[C@H]4O)ncc3Cl)cc21 [Example A16] | 25.7
2 | CCC1COCc2nc3c(F)cc(-c4nc(N[C@@H]5CCN(S(C)(=O)=O)C[C@H]5O)ncc4F)cc3n21 (some centres unmarked) [Example A17] | 9.9
3 | CC1(C)COCc2nc3c(F)cc(-c4nc(N[C@@H]5CCN(S(C)(=O)=O)C[C@H]5O)ncc4F)cc3n21 [Example A18] | 25
4 | CC(C)c1c2cc(-c3nc(N[C@@H]4CCN(S(C)(=O)=O)C[C@H]4O)ncc3Cl)cc(F)c2nn1C [Example A25] | 13.3
5 | CC(C)n1c(C(C)(C)O)nc2c(F)cc(-c3nc(N[C@H]4CCOC[C@H]4O)ncc3Cl)cc21 [Example A35] | 124

target: CDK4/Cyclin D1 (Homo sapiens (Human), UniProt P11802); experiment: CDK4/Cyclin D1 mobility shift assay; assay type: biochemical; conditions: activated CDK4/Cyclin D1, 3.5 mM ATP, fit to Morrison equation; read-out: CDK4D1 Ki
Sequence (P11802 whole entry): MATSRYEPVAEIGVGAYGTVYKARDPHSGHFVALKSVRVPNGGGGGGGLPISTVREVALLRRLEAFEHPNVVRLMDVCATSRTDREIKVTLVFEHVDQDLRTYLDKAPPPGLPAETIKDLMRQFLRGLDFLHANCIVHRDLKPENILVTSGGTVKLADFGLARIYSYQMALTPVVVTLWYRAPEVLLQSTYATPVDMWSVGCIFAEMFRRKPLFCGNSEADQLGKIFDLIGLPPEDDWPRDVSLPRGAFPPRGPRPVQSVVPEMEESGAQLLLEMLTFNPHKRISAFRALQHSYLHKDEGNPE
Sequence (P24385 whole entry partner): as the sequence (P24385 whole entry partner) above
Description: Biological Assays and Data CDK4/Cyclin D1 Mobility Shift Assay
(§2) The purpose CDK4/Cyclin D1 assay is to evaluate the inhibition (% inhibition, Kiapp and Ki values) in the presence of small molecule inhibitors by using a fluorescence based microfluidic mobility shift assay. […] The mobility shift assay electrophoretically separates the fluorescently labeled peptides (substrate and phosphorylated product) following the kinase reaction. Both substrate and product are measured and the ratio of these values is used to generate % Conversion of substrate to product by the LabChip EZ Reader.
The reaction was stopped after 195 minutes by the addition of 50 μL of 30 mM EDTA. Ki determinations were made from a plot of the fractional velocity as a function of inhibitor concentration fit to the Morrison equation with the enzyme concentration as a variable.
For CDK4 and CDK6 mobility shift assays, see also Morrison, J. F. (1969) Kinetics of the reversible inhibition of enzyme-catalysed reactions by tight-binding inhibitors, Biochimica et biophysica acta 185, 269-286; and Murphy, D. J. (2004) Determination of accurate KI values for tight-binding enzyme inhibitors: an in silico study of experimental error and assay design, Analytical biochemistry 327, 61-67.

Row | SMILES | Ki [nM]
6 | CS(=O)(=O)N1CC[C@@H](Nc2ncc(Cl)c(-c3cc(F)c4ncn(C5CCOC5)c4c3)n2)[C@H](O)C1 (some centres unmarked) [Example A14] | 0.5
7 | CS(=O)(=O)N1CC[C@@H](Nc2ncc(Cl)c(-c3cc(F)c4ncn(C5CC5)c4c3)n2)[C@H](O)C1 [Example A15] | 0.3
8 | CC(C)n1cnc2c(Cl)cc(-c3nc(N[C@@H]4CCN(S(C)(=O)=O)C[C@H]4O)ncc3Cl)cc21 [Example A16] | 0.2
9 | CCC1COCc2nc3c(F)cc(-c4nc(N[C@@H]5CCN(S(C)(=O)=O)C[C@H]5O)ncc4F)cc3n21 (some centres unmarked) [Example A17] | 0.1
10 | CC1(C)COCc2nc3c(F)cc(-c4nc(N[C@@H]5CCN(S(C)(=O)=O)C[C@H]5O)ncc4F)cc3n21 [Example A18] | 0.2
11 | CC(C)n1c(C(C)(C)O)nc2c(F)cc(-c3nc(N[C@H]4CCOC[C@H]4O)ncc3Cl)cc21 [Example A35] | 1.5

target: CDK6/Cyclin D3 (Homo sapiens (Human), UniProt Q00534); experiment: CDK6/Cyclin D3 mobility shift assay; assay type: biochemical; conditions: activated CDK6/Cyclin D3, 3.5 mM ATP, fit to Morrison equation; read-out: CDK6_D3 Ki
Sequence (Q00534 whole entry): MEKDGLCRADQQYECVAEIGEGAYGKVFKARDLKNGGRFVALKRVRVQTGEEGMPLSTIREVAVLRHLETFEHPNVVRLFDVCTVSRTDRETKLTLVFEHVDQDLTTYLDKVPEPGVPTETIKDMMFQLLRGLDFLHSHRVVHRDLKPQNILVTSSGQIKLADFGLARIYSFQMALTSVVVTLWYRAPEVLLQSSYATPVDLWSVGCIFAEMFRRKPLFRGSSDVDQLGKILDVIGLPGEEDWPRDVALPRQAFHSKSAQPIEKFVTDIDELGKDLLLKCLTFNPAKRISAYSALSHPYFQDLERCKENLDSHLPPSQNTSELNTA
Sequence (P30281 whole entry partner): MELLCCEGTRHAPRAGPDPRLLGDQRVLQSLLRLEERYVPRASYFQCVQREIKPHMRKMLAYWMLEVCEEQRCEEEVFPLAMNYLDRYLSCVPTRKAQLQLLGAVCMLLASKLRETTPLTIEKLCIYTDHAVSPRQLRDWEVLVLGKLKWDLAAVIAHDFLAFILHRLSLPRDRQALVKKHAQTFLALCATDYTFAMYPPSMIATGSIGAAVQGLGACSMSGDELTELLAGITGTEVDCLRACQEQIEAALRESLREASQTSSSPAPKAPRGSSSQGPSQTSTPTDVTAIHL
Description: CDK6/Cyclin D3 Mobility Shift Assay
as §2, with “of the CDK6/Cyclin D3” for “CDK4/Cyclin D1”, “conversion” for “Conversion”
The reaction was stopped after 95 minutes by the addition of 50 μL of 30 mM EDTA. Ki determinations were made from a plot of the fractional velocity as a function of inhibitor concentration fit to the Morrison equation with the enzyme concentration as a variable.

Row | SMILES | Ki [nM]
12 | CS(=O)(=O)N1CC[C@@H](Nc2ncc(Cl)c(-c3cc(F)c4ncn(C5CCOC5)c4c3)n2)[C@H](O)C1 (some centres unmarked) [Example A14] | 4.6
13 | CS(=O)(=O)N1CC[C@@H](Nc2ncc(Cl)c(-c3cc(F)c4ncn(C5CC5)c4c3)n2)[C@H](O)C1 [Example A15] | 2.4
14 | CC(C)n1cnc2c(Cl)cc(-c3nc(N[C@@H]4CCN(S(C)(=O)=O)C[C@H]4O)ncc3Cl)cc21 [Example A16] | 2.7
15 | CCC1COCc2nc3c(F)cc(-c4nc(N[C@@H]5CCN(S(C)(=O)=O)C[C@H]5O)ncc4F)cc3n21 (some centres unmarked) [Example A17] | 0.4
16 | CC1(C)COCc2nc3c(F)cc(-c4nc(N[C@@H]5CCN(S(C)(=O)=O)C[C@H]5O)ncc4F)cc3n21 [Example A18] | 2.3
17 | CC(C)c1c2cc(-c3nc(N[C@@H]4CCN(S(C)(=O)=O)C[C@H]4O)ncc3Cl)cc(F)c2nn1C [Example A25] | 1.3
18 | CC(C)n1c(C(C)(C)O)nc2c(F)cc(-c3nc(N[C@H]4CCOC[C@H]4O)ncc3Cl)cc21 [Example A35] | 58.9

target: CDK6 (Homo sapiens (Human), UniProt Q00534); experiment: Phospho-Serine 795 Rb ELISA assay in MV4-11 cells; assay type: cell-based; conditions: treated overnight, phospho-Ser795 Rb, read-out: CDK6 pRB S795 ELISA MV4-11 cells IC50
Sequence (Q00534 whole entry): as the sequence (Q00534 whole entry) above
Sequence (P30281 whole entry partner): as the sequence (P30281 whole entry partner) above
Description: as §1

Row | SMILES | IC50 [nM]
19 | CC(C)n1cnc2c(Cl)cc(-c3nc(N[C@@H]4CCN(S(C)(=O)=O)C[C@H]4O)ncc3Cl)cc21 [Example A16] | 98.1
20 | CCC1COCc2nc3c(F)cc(-c4nc(N[C@@H]5CCN(S(C)(=O)=O)C[C@H]5O)ncc4F)cc3n21 (some centres unmarked) [Example A17] | 13.4
21 | CC1(C)COCc2nc3c(F)cc(-c4nc(N[C@@H]5CCN(S(C)(=O)=O)C[C@H]5O)ncc4F)cc3n21 [Example A18] | 77.2
22 | CC(C)c1c2cc(-c3nc(N[C@@H]4CCN(S(C)(=O)=O)C[C@H]4O)ncc3Cl)cc(F)c2nn1C [Example A25] | 30.6
23 | CC(C)n1c(C(C)(C)O)nc2c(F)cc(-c3nc(N[C@H]4CCOC[C@H]4O)ncc3Cl)cc21 [Example A35] | 967
